Non-standard residues stand in square brackets, D forms with d. No end group written: not given here. Cit = NC(=O)NCCC[C@H](N)C(=O)O
The substances below were run on C57Bl/6 mice (assay: Glucose tolerance test in fasted C57Bl/6 mice after single IP peptide injection). Details: single IP 300 mg/kg, 2 g/kg glucose IP.
Format: in vivo, mouse
Procedure: Peptide may additionally be screened for the ability to lower glucose using methods illustrated in the EXAMPLES section, e.g., Example 31. For example, the ability to lower glucose can be evaluated using ing animal models, such as mice or rats. Mice, e.g., C57Bl/6 mice, fed a normal lab chow diet are injected IP with a peptide that is undergoing evaluation, e.g., at a does of 300 mg/kg, and the glucose levels in the blood are measured at a time period, e.g. 6 hours, following injection and compared to the levels of blood glucose in a control animal that received PBS. Alternatively, peptides may be screened for the ability to lower glucose as illustrated in Example 36. For example, 300 mg/kg peptide injected IP into to fasted animals and 3 h thereafter a glucose tolerance test is performed by injecting 2 g/kg glucose during which the glucose concentration is followed for 120 minutes. Peptides that have glucose lowering activity show statistically significant lowered glucose relative to controls. Typically, peptides lower glucose by at least 5%, often at least 10% or greater, relative to controls. Peptides may also be evaluated for glucose-lowering activity in animal models of obesity, e.g., DIO mice. Further, peptides may be evaluated for the ability to improve sensitivity to insulin, e.g., as described in Example 31 of the EXAMPLES section.
This example illustrates that CS6253 and T6991-2 lower blood glucose concentrations upon glucose challenge in C57Bl/6 mice (FIG. 51). Fasted male C57Bl/6 mice on chow diet received a single intraperitonel (IP) injection of either vehicle alone or 300 mg/kg of lipid-free peptide, as described for safety studies in FIG. 5. Following treatment, a glucose tolerance test was performed via IP injection of 2 g/kg glucose. Blood was collected from the tail vein at the indicated times and blood glucose measured using a glucometer. Panels A and B— Blood glucose concentrations expressed as mass values over time following glucose challenge, with corresponding area under the curve, respectively. (Bar graph, panel B, bars from left to right are PBS, CS6253, T699102, 2, 4, 5, 6, and 9, respectively) Values are means±SD, n=4 mice per group.

Substance | blood glucose upon glucose challenge
T8212-2: CS6253 analog with combination of leucine and isoleucine residues (L→I) (EV[Cit]SKLEEWLAAI[Cit]ELAEELLARLKS) [Peptide T8212-2] | poorly active in lowering blood glucose responses
T8212-4: CS6253 analog with combination of leucine and isoleucine residues (L→I) (EV[Cit]SKLEEWIAAL[Cit]ELAEEILARLKS) [Peptide T8212-4] | poorly active in lowering blood glucose responses
T8212-5: CS6253 analog with combination of leucine and isoleucine residues (L→I) (EV[Cit]SKIEEWIAAL[Cit]ELAEEILARLKS) [Peptide T8212-5] | poorly active in lowering blood glucose responses
T8212-6: CS6253 analog with combination of leucine and isoleucine residues (L→I) (EV[Cit]SKIEEWLAAI[Cit]EIAEELLARLKS) [Peptide T8212-6] | poorly active in lowering blood glucose responses
T8212-9: CS6253 analog with combination of leucine and isoleucine residues (L→I) (EV[Cit]SKIEEWIAAI[Cit]EIAEEIIARLKS) [Peptide T8212-9] | poorly active in lowering blood glucose responses

Each substance was assayed against T1, ABCA1 (Mus musculus, UniProt P41233) (assay: ABCA1 protein stabilization in J774 macrophages (Western blot)). Details: J774 after cAMP, 6 h chase.
T1 construct: treated (18 h) with a cAMP analog to induce ABCA1 protein expression; endogenous in cells; host or cells: J774 macrophages
T1 sequence (P41233 whole entry): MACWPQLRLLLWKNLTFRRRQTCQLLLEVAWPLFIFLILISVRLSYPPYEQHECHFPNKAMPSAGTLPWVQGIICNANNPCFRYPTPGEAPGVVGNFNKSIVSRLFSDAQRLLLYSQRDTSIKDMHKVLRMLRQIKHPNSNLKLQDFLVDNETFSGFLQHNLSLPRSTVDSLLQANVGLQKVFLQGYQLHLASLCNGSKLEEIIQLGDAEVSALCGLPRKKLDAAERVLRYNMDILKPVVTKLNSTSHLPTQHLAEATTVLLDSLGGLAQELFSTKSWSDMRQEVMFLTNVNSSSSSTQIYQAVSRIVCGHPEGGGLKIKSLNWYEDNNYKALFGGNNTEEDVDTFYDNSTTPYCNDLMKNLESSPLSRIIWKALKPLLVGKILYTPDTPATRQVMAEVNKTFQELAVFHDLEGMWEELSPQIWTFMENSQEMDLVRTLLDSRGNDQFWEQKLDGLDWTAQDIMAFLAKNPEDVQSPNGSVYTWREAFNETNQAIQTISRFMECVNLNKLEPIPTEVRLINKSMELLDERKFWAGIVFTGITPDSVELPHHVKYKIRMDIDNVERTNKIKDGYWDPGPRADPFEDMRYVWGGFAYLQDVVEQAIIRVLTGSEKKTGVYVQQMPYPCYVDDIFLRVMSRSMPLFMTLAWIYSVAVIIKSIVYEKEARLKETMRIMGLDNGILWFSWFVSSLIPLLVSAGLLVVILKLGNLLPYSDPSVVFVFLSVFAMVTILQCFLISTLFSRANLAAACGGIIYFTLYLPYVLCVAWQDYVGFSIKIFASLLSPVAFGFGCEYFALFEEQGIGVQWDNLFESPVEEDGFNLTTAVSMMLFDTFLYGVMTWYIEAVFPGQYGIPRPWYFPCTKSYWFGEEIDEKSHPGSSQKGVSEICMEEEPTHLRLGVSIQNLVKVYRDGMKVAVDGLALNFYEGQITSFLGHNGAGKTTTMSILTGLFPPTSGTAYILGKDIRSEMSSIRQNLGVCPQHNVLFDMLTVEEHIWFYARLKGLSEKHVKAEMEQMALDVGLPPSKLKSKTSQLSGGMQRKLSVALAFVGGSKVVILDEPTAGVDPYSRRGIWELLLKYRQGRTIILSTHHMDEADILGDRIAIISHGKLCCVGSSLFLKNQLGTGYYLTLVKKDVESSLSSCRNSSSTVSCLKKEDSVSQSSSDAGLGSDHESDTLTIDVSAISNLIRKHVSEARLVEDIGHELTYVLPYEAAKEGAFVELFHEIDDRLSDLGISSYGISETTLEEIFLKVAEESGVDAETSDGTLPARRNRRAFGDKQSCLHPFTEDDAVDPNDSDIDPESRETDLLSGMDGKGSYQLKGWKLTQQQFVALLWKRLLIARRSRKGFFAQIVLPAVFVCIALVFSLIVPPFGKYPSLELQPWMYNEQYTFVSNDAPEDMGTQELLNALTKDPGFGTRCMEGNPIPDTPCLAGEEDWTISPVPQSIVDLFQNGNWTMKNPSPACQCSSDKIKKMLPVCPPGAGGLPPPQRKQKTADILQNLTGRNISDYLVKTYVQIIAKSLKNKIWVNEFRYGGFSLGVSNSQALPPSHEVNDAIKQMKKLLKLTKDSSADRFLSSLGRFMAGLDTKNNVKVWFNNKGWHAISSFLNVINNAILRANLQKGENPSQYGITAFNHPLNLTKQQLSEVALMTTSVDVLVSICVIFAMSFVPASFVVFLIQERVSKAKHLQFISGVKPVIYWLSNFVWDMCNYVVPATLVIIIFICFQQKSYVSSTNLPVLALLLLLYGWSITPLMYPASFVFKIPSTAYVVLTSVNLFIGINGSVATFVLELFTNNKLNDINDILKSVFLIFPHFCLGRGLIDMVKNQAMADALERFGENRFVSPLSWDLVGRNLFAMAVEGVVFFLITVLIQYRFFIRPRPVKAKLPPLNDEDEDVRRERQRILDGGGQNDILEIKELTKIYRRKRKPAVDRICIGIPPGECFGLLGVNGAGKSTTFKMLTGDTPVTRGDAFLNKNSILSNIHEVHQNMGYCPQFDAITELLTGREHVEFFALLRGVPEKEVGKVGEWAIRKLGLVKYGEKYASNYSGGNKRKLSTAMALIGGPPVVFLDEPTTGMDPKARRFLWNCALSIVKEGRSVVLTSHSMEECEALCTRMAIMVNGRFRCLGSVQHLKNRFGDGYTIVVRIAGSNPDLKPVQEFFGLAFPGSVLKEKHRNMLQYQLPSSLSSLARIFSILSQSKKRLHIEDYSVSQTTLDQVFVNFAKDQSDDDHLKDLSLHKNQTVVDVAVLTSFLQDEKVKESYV
Format: cell-based
Procedure: In some embodiments, the stabilization of ABCA is measured by direct measurement of ABCA (e.g., ABCA protein, or nucleic acid) using a cell based assay. Cell based assays can be performed in any cells in which ABCA is expressed (e.g., J774 macrophages), including cells which have been transfected with ABCA (e.g. HeLa cells). Any cell type can be used. For example, J774 macrophages can be used to assess relative ABCA1 protein levels in the presence and absence of polypeptides of the invention. The cells are first contacted with a compound that will induce ABCA (e.g., cAMP or a cAMP analogue such as, 8-bromo-cAMP) to upregulate ABCA (e.g., ABCA1) expression, then exposed to […] polypeptides of the invention in the absence of the cAMP stimulus to evaluate whether ABCA1 protein was stabilized or degraded. Relative levels of ABCA1 protein can be assessed using any means known in the art including, e.g., immunoblot analysis of cell membranes (Oram et al., J. Biol. Chem., 278:52379-52385 (2003)) or hybridization of nucleic acid probes to ABCA mRNA.
(FIG. 29). J774 macrophages were used for experiments. Panel A—Cells were labeled (48 h) with 3H cholesterol and treated with (right bars) and without (left bars) a cAMP analog to modulate ABCA1 expression. […]

ABCA1 protein level (stabilization) | Substance
maintained at high-levels | apoA-I: full-length native apolipoprotein A-I, lipid-free
